Where two headings read alike, the source gives them in different places.
Legend:
[1] = 23° C., 8 months, pH 7 without buffer
Experimental: Samples were β-sterilized at 50 kGy and stored at 23° C. for 8 months.
The results were calculated from 86 separate samples (mean value±standard deviation of mean value) (Table 5.1).

[2] = Effect of buffer (citrate) in swelling medium on degradation of H2O2; settings: no stabilizer
[3] = Various stabilizers: degradation of H2O2 at pH 4, 5.5 and 7; settings: no stabilizer, 25 mM citric acid, approx. 1% H2O2
Experimental: Therefore the investigation of the influence of the pH-value on the stability in our system was included in the study.
24 different kinds of swelling media containing different stabilizers (one without stabilizer) and 3 different pH-values (pH 4, 5.5 and 7) were prepared. […] The concentration of sodium chloride in each of these three swelling media was 0.7% (w/w). Sodium chloride was tested because it could be used as an osmolality increasing agent. […] Two different kinds of material for the stick-pack were used, one with “peel” and one with “non-peel”. […] The irradiation dose was 2*26 kGy.
The stick-pack with “peel” was a laminated material consisting of PETP (12 μm), aluminium (9 μm) and polyethylene peel (polyethylene+10% polybutylene) (70 μm). […] The stick-packs were made out of a stamped area of 13×35 mm that was welded in the longitudinal direction by 1×3 units on a welder. It was welded by 2×2.2 units across in one end of the stick-pack, and in the other end by 4.0 bar, 130° C. and 3.5 s (breakable seal).
The stick-packs were stored for stability testing at 23° C. and 40° C. Samples were taken out after irradiation and after 2 and 4 weeks at 40° C. and 8 and 16 weeks at 23° C.

[4] = system: 7 different bacterial strains; settings: mid-log phase, absorbance at 600 nm, 7 strains pooled
From the text: The obtained data from each specific bacterial strain were pooled.

[5] = hydrogen peroxide taken alone
[6] = Experimental: The pH value of the latter solution was adjusted to 5.5 with 1 M NaOH. 10.0 mL aliquots of each of the two solutions were taken out and placed in 50 mL brown PE-containers.
The samples were β-irradiation at Risø National Laboratory. The samples were measured before irradiation, immediately after irradiation and after 2 and 4 weeks storage at 60° C. (triple determination).

[7] = system: 7 different bacterial strains; settings: for bacterial survival rate, Mean: exposed 60 min.; for surviving bacteria, Mean (% of control): 1% hydrogen peroxide

SMILES: OO [Std H2O2, hydrogen peroxide]
- H2O2 loss per day (%) ([1]; initial 1% H2O2, 0% PVP C-15, 50 kGy): 0.088 ± 0.029%
- H2O2 loss per day (%) ([1]; initial 1% H2O2, 6% PVP C-15, 50 kGy): 0.167 ± 0.048%
- Calculated degraded amount of H2O2 (%) after 2 years storage at 23° C. ([2]; 0 mM citrate, pH 5.5): 22.4%
- Calculated degraded amount of H2O2 (%) after 2 years storage at 23° C. ([2]; 0 mM citrate, pH 7): 60.2%
- Calculated degraded amount of H2O2 (%) after 2 years storage at 23° C. ([2]; 10 mM citrate, pH 4): 47.6%
- Calculated degraded amount of H2O2 (%) after 2 years storage at 23° C. ([2]; 10 mM citrate, pH 5.5): 63.0%
- Calculated degraded amount of H2O2 (%) after 2 years storage at 23° C. ([2]; 10 mM citrate, pH 7): 277.1%
- Calculated degraded amount of H2O2 (%) after 2 years storage at 23° C. ([2]; 25 mM citrate, pH 5.5): 74.2%
- Calculated degraded amount of H2O2 (%) after 2 years storage at 23° C. ([2]; 25 mM citrate, pH 7): 201.5%
- calculated amount of degraded H2O2 after 2 years of storage at 23° C. ([3]; pH 4): 15.7%
- calculated amount of degraded H2O2 after 2 years of storage at 23° C. ([3]; pH 5.5): 31.7%
- calculated amount of degraded H2O2 after 2 years of storage at 23° C. ([3]; pH 7): 54.7%
- bacterial growth, Mean (% of control) ([4]; 0.00000256% hydrogen peroxide): 110.0 % of control
- bacterial growth, Mean (% of control) ([4]; 0.0000128% hydrogen peroxide): 99.8 % of control
- bacterial growth, Mean (% of control) ([4]; 0.000064% hydrogen peroxide): 97.9 % of control
- bacterial growth, Mean (% of control) ([4]; 0.000320% hydrogen peroxide): 96.2 % of control
- bacterial growth, Mean (% of control) ([4]; 0.0016% hydrogen peroxide): 87.3 % of control
- bacterial growth, Mean (% of control) ([4]; 0.008% hydrogen peroxide): 63.0 % of control
- bacterial growth, Mean (% of control) ([4]; 0.04% hydrogen peroxide): 35.6 % of control
- bacterial growth, Mean (% of control) ([4]; 0.2% hydrogen peroxide): 16.0 % of control
- bacterial growth, Mean (% of control) ([4]; 1.0% hydrogen peroxide): 11.7 % of control
- speed of effect compared to a range of other anti-microbial agents [5]: rapid
- Concentration of H2O2 (%-point) ([6]; Series I, catheter swelled in a solution of PVP, 0 kGy, 1 week at 60° C.): 0.97 %-point
- Concentration of H2O2 (%-point) ([6]; Series I, catheter swelled in a solution of PVP, 0 kGy, 2 weeks at 60° C.): 0.87 %-point
- Concentration of H2O2 (%-point) ([6]; Series I, catheter swelled in a solution of PVP, 0 kGy, after irradiation): 1.00 %-point
- Concentration of H2O2 (%-point) ([6]; Series I, catheter swelled in a solution of PVP, 25 kGy, 1 week at 60° C.): 0.79 %-point
- Concentration of H2O2 (%-point) ([6]; Series I, catheter swelled in a solution of PVP, 25 kGy, 2 weeks at 60° C.): 0.70 %-point
- Concentration of H2O2 (%-point) ([6]; Series I, catheter swelled in a solution of PVP, 25 kGy, after irradiation): 0.85 %-point
- Concentration of H2O2 (%-point) ([6]; Series I, catheter swelled in a solution of PVP, 50 kGy, 1 week at 60° C.): 0.58 %-point
- Concentration of H2O2 (%-point) ([6]; Series I, catheter swelled in a solution of PVP, 50 kGy, 2 weeks at 60° C.): 0.46 %-point
- Concentration of H2O2 (%-point) ([6]; Series I, catheter swelled in a solution of PVP, 50 kGy, after irradiation): 0.73 %-point
- Concentration of H2O2 (%-point) ([6]; Series I, catheter swelled in a solution of PVP, 75 kGy, 1 week at 60° C.): 0.37 %-point
- Concentration of H2O2 (%-point) ([6]; Series I, catheter swelled in a solution of PVP, 75 kGy, 2 weeks at 60° C.): 0.26 %-point
- Concentration of H2O2 (%-point) ([6]; Series I, catheter swelled in a solution of PVP, 75 kGy, after irradiation): 0.57 %-point
- Concentration of H2O2 (%-point) ([6]; Series II, catheter swelled in distilled water, 0 kGy, 1 week at 60° C.): 0.98 %-point
- Concentration of H2O2 (%-point) ([6]; Series II, catheter swelled in distilled water, 0 kGy, 2 weeks at 60° C.): 0.92 %-point
- Concentration of H2O2 (%-point) ([6]; Series II, catheter swelled in distilled water, 0 kGy, after irradiation): 1.00 %-point
- Concentration of H2O2 (%-point) ([6]; Series II, catheter swelled in distilled water, 25 kGy, 1 week at 60° C.): 0.91 %-point
- Concentration of H2O2 (%-point) ([6]; Series II, catheter swelled in distilled water, 25 kGy, 2 weeks at 60° C.): 0.85 %-point
- Concentration of H2O2 (%-point) ([6]; Series II, catheter swelled in distilled water, 25 kGy, after irradiation): 0.93 %-point
- Concentration of H2O2 (%-point) ([6]; Series II, catheter swelled in distilled water, 50 kGy, 1 week at 60° C.): 0.81 %-point
- Concentration of H2O2 (%-point) ([6]; Series II, catheter swelled in distilled water, 50 kGy, 2 weeks at 60° C.): 0.75 %-point
- Concentration of H2O2 (%-point) ([6]; Series II, catheter swelled in distilled water, 50 kGy, after irradiation): 0.87 %-point
- Concentration of H2O2 (%-point) ([6]; Series II, catheter swelled in distilled water, 75 kGy, 1 week at 60° C.): 0.74 %-point
- Concentration of H2O2 (%-point) ([6]; Series II, catheter swelled in distilled water, 75 kGy, 2 weeks at 60° C.): 0.66 %-point
- Concentration of H2O2 (%-point) ([6]; Series II, catheter swelled in distilled water, 75 kGy, after irradiation): 0.81 %-point
- Concentration of H2O2 (%-point) ([6]; Series III, H2O2-solution in distilled water, 0 kGy, 1 week at 60° C.): 0.87 %-point
- Concentration of H2O2 (%-point) ([6]; Series III, H2O2-solution in distilled water, 0 kGy, 2 weeks at 60° C.): 0.76 %-point
- Concentration of H2O2 (%-point) ([6]; Series III, H2O2-solution in distilled water, 0 kGy, after irradiation): 1.00 %-point
- Concentration of H2O2 (%-point) ([6]; Series III, H2O2-solution in distilled water, 25 kGy, 1 week at 60° C.): 0.91 %-point
- Concentration of H2O2 (%-point) ([6]; Series III, H2O2-solution in distilled water, 25 kGy, 2 weeks at 60° C.): 0.88 %-point
- Concentration of H2O2 (%-point) ([6]; Series III, H2O2-solution in distilled water, 25 kGy, after irradiation): 0.95 %-point
- Concentration of H2O2 (%-point) ([6]; Series III, H2O2-solution in distilled water, 50 kGy, 1 week at 60° C.): 0.84 %-point
- Concentration of H2O2 (%-point) ([6]; Series III, H2O2-solution in distilled water, 50 kGy, 2 weeks at 60° C.): 0.85 %-point
- Concentration of H2O2 (%-point) ([6]; Series III, H2O2-solution in distilled water, 50 kGy, after irradiation): 0.92 %-point
- Concentration of H2O2 (%-point) ([6]; Series III, H2O2-solution in distilled water, 75 kGy, 1 week at 60° C.): 0.79 %-point
- Concentration of H2O2 (%-point) ([6]; Series III, H2O2-solution in distilled water, 75 kGy, 2 weeks at 60° C.): 0.77 %-point
- Concentration of H2O2 (%-point) ([6]; Series III, H2O2-solution in distilled water, 75 kGy, after irradiation): 0.89 %-point
- bacterial survival rate, Mean ([7]; 0.016% hydrogen peroxide): 49.8
- bacterial survival rate, Mean ([7]; 0.031% hydrogen peroxide): 38.1
- bacterial survival rate, Mean ([7]; 0.063% hydrogen peroxide): 27.8
- bacterial survival rate, Mean ([7]; 0.125% hydrogen peroxide): 14.5
- bacterial survival rate, Mean ([7]; 0.250% hydrogen peroxide): 9.1
- bacterial survival rate, Mean ([7]; 0.500% hydrogen peroxide): 0.2
- bacterial survival rate, Mean ([7]; 1.000% hydrogen peroxide): 0.0
- surviving bacteria, Mean (% of control) ([7]; exposure time 5 min): 37 % of control
- surviving bacteria, Mean (% of control) ([7]; exposure time 10 min): 17 % of control
- surviving bacteria, Mean (% of control) ([7]; exposure time 15 min): 6 % of control
